Laboratory results from patent publication US20260042731A1, “(2,4-DICHLOROPHENOXY)ACETIC ACID ANALOGS” (CORTEVA AGRISCIENCE LLC, priority 2022, published 2026).
Where two headings read alike, the source gives them in different places.

Key:
[1] = test system: Ambrosia artemisiifolia (AMBEL), common ragweed; test: Postemergence herbicide evaluation, growth of Ambrosia artemisiifolia (AMBEL); assay type: in vivo; conditions: Ambrosia artemisiifolia, post-emergence, read-out: AVE. AMBEL, percent reduction in plant size relative to the untreated control; for pest or weed control at 280 g/ha: 280 g ae/ha; for pest or weed control at 560 g/ha: 560 g ae/ha
[2] = test system: Amaranthus rudis (AMATA), tall water hemp; test: Postemergence herbicide evaluation, growth of Amaranthus rudis (AMATA); assay type: in vivo; conditions: Amaranthus tuberculatus, post-emergence, read-out: Ave. AMATA, percent reduction in plant size relative to the untreated control; for pest or weed control at 280 g/ha: 280 g ae/ha; for pest or weed control at 560 g/ha: 560 g ae/ha
[3] = test system: weeds ABUTH, AMATA, AMBEL, CHEAL, ERICA; test: Postemergence herbicide evaluation, overall average % weed control (ABUTH, AMATA, AMBEL, CHEAL, ERICA); assay type: in vivo; conditions: post-emergence, read-out: Overall Ave % Weed Control; for pest or weed control at 280 g/ha: 280 g ae/ha; for pest or weed control at 560 g/ha: 560 g ae/ha
[4] = test system: Abutilon theophrasti (ABUTH), velvetleaf; test: Postemergence herbicide evaluation, growth of Abutilon theophrasti (ABUTH); assay type: in vivo; conditions: Abutilon theophrasti, post-emergence, read-out: AVE. ABUTH, percent reduction in plant size relative to the untreated control; for pest or weed control at 280 g/ha: 280 g ae/ha; for pest or weed control at 560 g/ha: 560 g ae/ha
[5] = test system: glyphosate resistant Conyza canadensis (L.) (ERICA), horseweed; test: Postemergence herbicide evaluation, growth of Conyza canadensis (ERICA); assay type: in vivo; conditions: Erigeron canadensis, post-emergence, read-out: Ave. ERICA, percent reduction in plant size relative to the untreated control; for pest or weed control at 280 g/ha: 280 g ae/ha; for pest or weed control at 560 g/ha: 560 g ae/ha
[6] = test system: Chenopodium album (CHEAL), common lambsquarters; test: Postemergence herbicide evaluation, growth of Chenopodium album (CHEAL); assay type: in vivo; conditions: Chenopodium album, post-emergence, read-out: Ave. CHEAL, percent reduction in plant size relative to the untreated control; for pest or weed control at 280 g/ha: 280 g ae/ha; for pest or weed control at 560 g/ha: 560 g ae/ha
[7] = Volatility of compounds measured by thermogravimetric analysis (TGA); assay type: physicochemical

## O=C(COc1ccc(Cl)cc1Cl)O/N=C/c1cccnc1 [Compound A29]
[1]; 168 h, 7 DAA
  pest or weed control at 280 g/ha: 77.5%
  pest or weed control at 560 g/ha: 77.5%
[1]; 336 h, 14 DAA
  pest or weed control at 280 g/ha: 75%
  pest or weed control at 560 g/ha: 100%
[1]; 504 h, 21 DAA
  pest or weed control at 280 g/ha: 100%
  pest or weed control at 560 g/ha: 100%
[2]; 168 h, 7 DAA
  pest or weed control at 280 g/ha: 70%
  pest or weed control at 560 g/ha: 91%
[2]; 336 h, 14 DAA
  pest or weed control at 280 g/ha: 90%
  pest or weed control at 560 g/ha: 97%
[2]; 504 h, 21 DAA
  pest or weed control at 280 g/ha: 72.5%
  pest or weed control at 560 g/ha: 100%
[3]; 168 h, 7 DAA
  pest or weed control at 280 g/ha: 71.5%
  pest or weed control at 560 g/ha: 79.7%
[3]; 336 h, 14 DAA
  pest or weed control at 280 g/ha: 85.8%
  pest or weed control at 560 g/ha: 94.7%
[3]; 504 h, 21 DAA
  pest or weed control at 280 g/ha: 88.1%
  pest or weed control at 560 g/ha: 98.3%
[4]; 168 h, 7 DAA
  pest or weed control at 280 g/ha: 50%
  pest or weed control at 560 g/ha: 70%
[4]; 336 h, 14 DAA
  pest or weed control at 280 g/ha: 67.5%
  pest or weed control at 560 g/ha: 82.5%
[4]; 504 h, 21 DAA
  pest or weed control at 280 g/ha: 77.5%
  pest or weed control at 560 g/ha: 97.5%
[5]; 168 h, 7 DAA
  pest or weed control at 280 g/ha: 77.5%
  pest or weed control at 560 g/ha: 82.5%
[5]; 336 h, 14 DAA
  pest or weed control at 280 g/ha: 100%
  pest or weed control at 560 g/ha: 99%
[5]; 504 h, 21 DAA
  pest or weed control at 280 g/ha: 99%
  pest or weed control at 560 g/ha: 96.5%
[6]; 168 h, 7 DAA
  pest or weed control at 280 g/ha: 82.5%
  pest or weed control at 560 g/ha: 77.5%
[6]; 336 h, 14 DAA
  pest or weed control at 280 g/ha: 96.5%
  pest or weed control at 560 g/ha: 95%
[6]; 504 h, 21 DAA
  pest or weed control at 280 g/ha: 91.5%
  pest or weed control at 560 g/ha: 97.5%
[7]
  TGA Data (rate of weight loss, volatility): 0.38 µg/min
